Source: US20150018384A1, “TREATMENT FOR HIGH CHOLESTEROL” (FibroGen, Inc., priority 2012, published 2015)

Columns and labels:
[1] = target: PHD3 (Homo sapiens, UniProt Q9H6Z9); experiment: HIF prolyl hydroxylase enzyme assay, PHD3; assay type: biochemical
Excerpt: Suitable assay methods are well known in the art.

[2] = tested on: healthy subjects; experiment: Circulating total cholesterol and LDL-C in healthy subjects dosed twice per week; assay type: in vivo, human; details: 1.88 mg/Kg orally twice per week, average (SD), n=6
Protocol: Subjects were fasted overnight prior on subsequent dosing days. Overnight fasting was not required on non-dosing days. The samples had been stored frozen at −70° C. for up to 6 years, and had undergone up to two thaw/freeze cycles prior to testing. Results are presented separately for samples collected during fasting: Day 1 (0, 1, 2 hrs post-dose), Day 2 (24 hrs), Day 3 (72 hrs), Day 7 (168 hrs), Day 10 (240 hrs) and Day 17 (408 hours).
Samples were analyzed using validated assays on a Roche Modular system. Total cholesterol was measured using the CHOD-PAP reagent from Roche, Cat. No. 11875540216. HDL cholesterol was measured using reagents from Polymedco, Cat. No. 9400 (data not shown). LDL cholesterol was measured using the LDL-C plus 2nd generation reagents from Roche, Cat. No. 04711220190. Triglycerides were measured using GPO-PAP reagent from Roche, Cat. No. 11730711216 (data not shown).

[3] = tested on: Cholesterol Biosynthesis Genes in the Mouse Liver; experiment: Microarray expression of cholesterol biosynthesis genes in mouse liver; assay type: in vivo; details: 90 mg/kg oral
Summary of the method: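 Mouse livers taken 4 h or 8 h post-treatment; RNA from paired animals pooled and hybridized to mouse 430A 2.0 arrays, GC-RMA processed, outlier arrays removed by PCA. Values are fold-change versus timepoint-matched vehicle controls from the same study; below 1.0 means reduced liver RNA.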

[4] = tested on: subjects with chronic kidney disease (CKD); experiment: Phase 2b study in CKD subjects with anemia, Compound A vs placebo; assay type: in vivo, human
Protocol: The Hb target was 11 g/dL. The primary efficacy endpoint was the maximum change of Hb from baseline by Week 9.
Subjects were stratified by baseline (BL) total cholesterol (either >200 mg/dL or s 200 mg/dL) and analyzed for mean total cholesterol and LDL-C over the course of treatment.

[5] = tested on: DIO mice; experiment: High cholesterol mouse model, diet induced obesity (DIO) mice; details: another study, 60 mg/kg three times a week for two weeks, n=10/group, FIG. 24
Excerpt: Ten-week-old male apoE knockout mice (Jackson Laboratories, Bar Harbor, Me.) were fed a normal chow diet (0.02% cholesterol, 13.5% fat by weight; LabDiet). Ten-week-old male diet induced obese mice (DIO Mice, Jackson Laboratories, Bar Harbor, Me.) were fed a high fat diet (0.095% cholesterol, 60% fat by weight; ResearchDiets) starting at six-weeks-old. After 2 weeks of acclimatization, whole blood was collected for baseline measurement before administration of test reagents. All test reagents were administered orally by gavage needle three times a week for 2 weeks for the apoE mice, and three times a week for 4 weeks for the DIO mice. The animals were sacrificed at end of study. Whole blood was collected weekly in Heparin-tube by submandibular bleeding and isolated plasma was stored at −80° C. for measurement of total cholesterol.
DIO mice as described in Example 10 were used to test the effect of various compounds on cholesterol levels. Compound (60 mg/kg) or vehicle was administered to the mice (n=10/group) three times a week for four weeks. A statin compound (rosuvastatin) was also tested. Blood samples were collected at weekly and total cholesterol blood levels were tested.

[6] = orally three times a week for 8 weeks

PHD3, sequence (Q9H6Z9 whole entry): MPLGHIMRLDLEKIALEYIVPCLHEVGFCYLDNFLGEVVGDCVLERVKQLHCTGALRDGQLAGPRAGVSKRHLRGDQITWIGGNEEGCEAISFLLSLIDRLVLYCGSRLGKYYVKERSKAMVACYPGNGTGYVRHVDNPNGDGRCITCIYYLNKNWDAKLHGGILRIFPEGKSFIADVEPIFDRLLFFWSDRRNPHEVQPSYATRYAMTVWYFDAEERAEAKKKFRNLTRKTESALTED

IC50 [1]: 200 to 2000 nM
SMILES: Cc1nc(C(=O)NCC(=O)O)c(O)c2ccc(Oc3ccccc3)cc12 [Compound A, [(4-Hydroxy-1-methyl-7-phenoxy-isoquinoline-3-carbonyl)-amino]-acetic acid]
LDL Cholesterol ([2]; 0 hours): 95 (36) mg/dL | Total Cholesterol ([2]; 0 hours): 165 (33) mg/dL | LDL Cholesterol ([2]; 1 hours): 95 (36) mg/dL | Total Cholesterol ([2]; 1 hours): 164 (30) mg/dL | LDL Cholesterol ([2]; 2 hours): 97 (35) mg/dL | Total Cholesterol ([2]; 2 hours): 167 (32) mg/dL | LDL Cholesterol ([2]; 24 hours): 96 (36) mg/dL | Total Cholesterol ([2]; 24 hours): 161 (31) mg/dL | LDL Cholesterol ([2]; 72 hours): 92 (27) mg/dL | Total Cholesterol ([2]; 72 hours): 154 (26) mg/dL | LDL Cholesterol ([2]; 168 hours): 77 (31) mg/dL | Total Cholesterol ([2]; 168 hours): 144 (24) mg/dL | LDL Cholesterol ([2]; 240 hours): 78 (29) mg/dL | Total Cholesterol ([2]; 240 hours): 144 (23) mg/dL | LDL Cholesterol ([2]; 408 hours): 86 (29) mg/dL | Total Cholesterol ([2]; 408 hours): 152 (22) mg/dL | 3-hydroxy-3-methylglutaryl-Coenzyme A reductase (Hmgcr) RNA expression ([3]; 4 h): 0.45 fold-change | 3-hydroxy-3-methylglutaryl-Coenzyme A synthase 1 (Hmgcs1) RNA expression ([3]; 4 h): 0.94 fold-change | 7-dehydrocholesterol reductase (Dhcr7) RNA expression ([3]; 4 h): 1.03 fold-change | NAD(P) dependent steroid dehydrogenase-like (Nsdhl) RNA expression ([3]; 4 h): 0.86 fold-change | acetyl-Coenzyme A acetyltransferase 2 (Acat2) RNA expression ([3]; 4 h): 1.24 fold-change | cytochrome P450, family 51 (Cyp51) RNA expression ([3]; 4 h): 0.69 fold-change | farnesyl diphosphate farnesyl transferase 1 (Fdft1) RNA expression ([3]; 4 h): 0.68 fold-change | farnesyl diphosphate synthetase (Fdps) RNA expression ([3]; 4 h): 0.87 fold-change | isopentenyl-diphosphate delta isomerase (Idi1) RNA expression ([3]; 4 h): 0.73 fold-change | lanosterol synthase (Lss) RNA expression ([3]; 4 h): 0.74 fold-change | mevalonate (diphospho) decarboxylase (Mvd) RNA expression ([3]; 4 h): 0.68 fold-change | mevalonate kinase (Mvk) RNA expression ([3]; 4 h): 1.00 fold-change | phosphomevalonate kinase (Pmvk) RNA expression ([3]; 4 h): 1.27 fold-change | squalene epoxidase (Sqle) RNA expression ([3]; 4 h): 0.61 fold-change | sterol-C4-methyl oxidase-like (Sc4mol) RNA expression ([3]; 4 h): 0.63 fold-change | sterol-C5-desaturase (fungal ERG3, delta-5-desaturase) homolog (S. cerevisae) (Sc5d) RNA expression ([3]; 4 h): 1.09 fold-change | 3-hydroxy-3-methylglutaryl-Coenzyme A reductase (Hmgcr) RNA expression ([3]; 8 h): 0.43 fold-change | 3-hydroxy-3-methylglutaryl-Coenzyme A synthase 1 (Hmgcs1) RNA expression ([3]; 8 h): 0.38 fold-change | 7-dehydrocholesterol reductase (Dhcr7) RNA expression ([3]; 8 h): 0.61 fold-change | NAD(P) dependent steroid dehydrogenase-like (Nsdhl) RNA expression ([3]; 8 h): 0.62 fold-change | acetyl-Coenzyme A acetyltransferase 2 (Acat2) RNA expression ([3]; 8 h): 0.50 fold-change | cytochrome P450, family 51 (Cyp51) RNA expression ([3]; 8 h): 0.45 fold-change | farnesyl diphosphate farnesyl transferase 1 (Fdft1) RNA expression ([3]; 8 h): 0.43 fold-change | farnesyl diphosphate synthetase (Fdps) RNA expression ([3]; 8 h): 0.36 fold-change | isopentenyl-diphosphate delta isomerase (Idi1) RNA expression ([3]; 8 h): 0.51 fold-change | lanosterol synthase (Lss) RNA expression ([3]; 8 h): 0.44 fold-change | mevalonate (diphospho) decarboxylase (Mvd) RNA expression ([3]; 8 h): 0.37 fold-change | mevalonate kinase (Mvk) RNA expression ([3]; 8 h): 0.53 fold-change | phosphomevalonate kinase (Pmvk) RNA expression ([3]; 8 h): 0.63 fold-change | squalene epoxidase (Sqle) RNA expression ([3]; 8 h): 0.43 fold-change | sterol-C4-methyl oxidase-like (Sc4mol) RNA expression ([3]; 8 h): 0.46 fold-change | sterol-C5-desaturase (fungal ERG3, delta-5-desaturase) homolog (S. cerevisae) (Sc5d) RNA expression ([3]; 8 h): 0.38 fold-change | Mean BL LDL-C ([4]; baseline (pre-treatment)): 102.60 mg/dL | Mean BL Total Cholesterol ([4]; baseline (pre-treatment)): 166.84 mg/dL | Cholesterol total % change [4, 6]: −18.5% | Cholesterol total change [4, 6]: -33.9 mg/dL | HDL-C [4, 6]: decreased | LDL Cholesterol % change [4, 6]: −23.2% | LDL cholesterol change [4, 6]: -27.9 mg/dL | percentage of subjects who achieved Hb response (Hb increase of >1 g/dL from baseline Hb) [4, 6]: 86.4% | mean total cholesterol over the course of treatment ([4]; subjects stratified by BL total cholesterol ≦200 (n=48) or >200 mg/dL (n=13), FIG. 14): reduction | mean LDL-C over the course of treatment ([4]; subjects stratified by BL total cholesterol ≦200 (n=48) or >200 mg/dL (n=13), FIG. 15): reduction | total cholesterol levels compared to vehicle treated [5]: statistically significant decrease in total cholesterol levels
